{
  "source": "patent US20230000813A1",
  "about": "“COMPOUND FOR THE TREATMENT OF BOVINE OR SWINE RESPIRATORY DISEASE” (Intervet Inc., priority 2016, published 2023)",
  "key": {"[1]": {"tested_on": "naturally occurring bovine respiratory disease (BRD)", "test": "Treatment of naturally occurring bovine respiratory disease under U.S. feedlot conditions (Example 11)", "assay_type": "in vivo, weaned beef cattle calves", "description": "The effectiveness and safety of compound 329 for the treatment of naturally occurring bovine respiratory disease (BRD) under typical U.S. feedlot conditions when administered subcutaneously was investigated. The therapeutic efficacy of the two antibacterials was compared to a negative control group (sterile saline) and a positive control group (Nuflor® Injectable Solution).\nWeaned beef cattle calves (crossbreds of Angus, Charolais and Limousin) were enrolled in the study and were allocated to groups of 20 animals per treatment group. Calves were enrolled in the study with body weights that ranged from 123 to 262 kg.\nThe bovine respiratory disease observed in this 10-day natural infection study was moderate to severe across the treatment groups and typical of that observed in commercial feed yards in the U.S.\nAnimals were dosed subcutaneously once on the day of enrollment (Day 0) with compound 329 or the control groups. Compound 329 was dosed at 10 mg/kg body weight. Nuflor® was dosed at 40 mg/kg body weight. Sterile saline was dosed at 2 mL/15 kg body weight."}, "[2]": {"tested_on": "Mannheimia haemolytica MH 13065 (XB0446-6003.9, BRD field isolate)", "test": "MIC, broth-microdilution (CLSI VET01-A4)", "assay_type": "cell-based", "how_it_was_run": "(§1)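 MIC read by eye as lowest compound concentration without visible growth (no turbidity), interpreted per CLSI VET01-S3. Doubling-dilution broth-microdilution trays, run according to CLSI VET01-A4.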"}, "[3]": {"tested_on": "Mannheimia haemolytica MH 13093 (XB0472-6014.1, BRD field isolate)", "test": "MIC, broth-microdilution (CLSI VET01-A4)", "assay_type": "cell-based", "how_it_was_run": "as §1"}, "[4]": {"tested_on": "15 isolates of H. parasuis", "test": "MIC50/MIC90, agar-dilution method (GC agar base)", "assay_type": "cell-based", "conditions": "Haemophilus parasuis", "procedure": "The in vitro activity of 3 representative compounds of this invention against 15 isolates of H. parasuis was determined. All strains were isolated from the respiratory tract of swine in different European countries The MICs for all isolates were determined by using the agar-dilution method according to CLSI document VET01-A4 [1]with the following modification: GC agar base was used instead of Mueller-Hinton agar base for the preparation of the agar-dilution plates. Results were interpreted according to the CLSI document VET01-S3."}, "[5]": {"test": "Plasma and tissue concentrations and pharmacokinetics in infected calves (Example 8)", "assay_type": "in vivo, Holstein black pied cattle calves", "procedure": "Three animals each were treated one hour after infection by subcutaneous (SC) administration of Compound 329 in an aqueous 30% (w/v) Captisol® solution for injection at a dose of 10 mg/kg BW.\nFood consumption was measured. Single individual blood samples were collected from the 12 animals at the following time points: D-1 (predose), 30 minutes, 2, 4, 6, 24 h and at D2 (ca. 45 h) after administration. After the day 2 blood sampling, the infected cattle were slaughtered. The lungs were weighted. Lung states and lung scores were observed morphologically.\nAt necropsy from animals treated with test items or the positive control, samples of epithelial lining fluid (ELF), lung tissue, and additionally tissue of liver and kidney were collected. From each lung two bacteriological swaps were taken from the left and right bronchus.\nEpithelial lining fluid was collected by inserting sterile paper strips caudally behind the tracheal bifurcation directly onto the bronchial mucous membrane in the left and right bronchus and allowed to moisten with bronchial fluid. The paper strip was left in place (resting on the bronchial mucosa) for approximately 1 minute before being placed back into the plastic container.\nFrom each lung two tissue samples were collected by clipping from at least two locations, one from morphologically unchanged tissue, one from the edge of pathomorphologically changed areas.\nPlasma, ELF, lung tissue and additional tissue samples were analyzed for concentrations of Compound 329 and Enrofloxacin/Ciprofloxacin respectively using a HPLC-MS/MS method.\nAn analysis of the measured plasma concentrations of C."}, "[6]": {"conditions": "D 0 to D 10, 20 calves per group, C. 329 10 mg/kg, Nuflor 40 mg/kg SC once"}, "[7]": {"conditions": "natural BRD, 20 calves per group, SC once on Day 0: C. 329 10 mg/kg, Nuflor 40 mg/kg"}, "[8]": {"conditions": "natural BRD, calves removed before D 10 included, C. 329 10 mg/kg, Nuflor 40 mg/kg SC once"}, "[9]": {"conditions": "SC single 10 mg/kg in 30% Captisol, individual animals and mean, 10 mg/kg"}, "[10]": {"conditions": "plasma, SC 10 mg/kg, mean, Phoenix WinNonlin"}},
  "note": "Where “and” joins values, the source holds several entries; their conditions need not be identical. Equal entries are not always repeated.",
  "data": [
    {"smiles": "CC(C)(N)C(NC(=O)c1ccc(C#Cc2ccc(CNC3CC3)cc2)cc1)C(=O)NO", "note": "(centres unmarked) [C. 329]", "values": [
      {"measurement": "Efficacy in a field like setting, naturally occurring BRD", "setting": "[1]; 10 mg/kg SC once, compared to saline and Nuflor, conclusion in words", "result": "demonstrated"},
      {"measurement": "Mortalities during the study", "setting": "[1]; 10-day natural BRD study, C. 329 10 mg/kg, Nuflor 40 mg/kg SC once", "result": 5, "unit": "%"},
      {"measurement": "Removals from the study, Percentage", "setting": "[1]; [6]", "result": 5, "unit": "%"},
      {"measurement": "Removals from the study, Total", "setting": "[1]; [6]", "result": 1},
      {"measurement": "Removals from the study, D 0", "setting": "[1]; [7]", "result": 0},
      {"measurement": "Removals from the study, D 1", "setting": "[1]; [7]", "result": 0},
      {"measurement": "Removals from the study, D 2", "setting": "[1]; [7]", "result": 0},
      {"measurement": "Removals from the study, D 3", "setting": "[1]; [7]", "result": 0},
      {"measurement": "Removals from the study, D 4", "setting": "[1]; [7]", "result": 0},
      {"measurement": "Removals from the study, D 5", "setting": "[1]; [7]", "result": 0},
      {"measurement": "Removals from the study, D 6", "setting": "[1]; [7]", "result": 0},
      {"measurement": "Removals from the study, D 7", "setting": "[1]; [7]", "result": 0},
      {"measurement": "Removals from the study, D 8", "setting": "[1]; [7]", "result": 0},
      {"measurement": "Removals from the study, D 9", "setting": "[1]; [7]", "result": 1},
      {"measurement": "Removals from the study, D 10", "setting": "[1]; [7]", "result": 0},
      {"measurement": "Average Body weight on D 0", "setting": "[1]; natural BRD, day of enrollment, C. 329 10 mg/kg, Nuflor 40 mg/kg SC once", "result": 401.2, "unit": "lb"},
      {"measurement": "Average Body weight on last day in study", "setting": "[1]; [8]", "result": 406.3, "unit": "lb"},
      {"measurement": "Average daily body weight gain", "setting": "[1]; [8]", "result": 0.5, "unit": "lb"},
      {"measurement": "daily body weight gains over the study period", "setting": "[1]; natural BRD, in words", "result": "positive daily body weight gains"},
      {"measurement": "MIC", "setting": "[2]", "result": 0.8, "unit": "µM"},
      {"measurement": "MIC", "setting": "[3]", "result": 1.6, "unit": "µM"},
      {"measurement": "MIC50", "setting": "[4]", "result": 2, "unit": "µg/mL"},
      {"measurement": "MIC90", "setting": "[4]", "result": 4, "unit": "µg/mL"},
      {"measurement": "compound concentrations in the tissue samples", "setting": "[5]; SC 10 mg/kg, compared with plasma, in words", "result": "above the plasma concentration"},
      {"measurement": "detection in plasma and section tissue samples", "setting": "[5]; SC 10 mg/kg, in words", "result": "detected at high concentrations"},
      {"measurement": "Concentration, Plasma 0.5 h", "setting": "[5]; [9]", "result": "2340 ng/mL and 1520 ng/mL and 1280 ng/mL"},
      {"measurement": "Concentration, Plasma 2 h", "setting": "[5]; [9]", "result": "1930 ng/mL and 1410 ng/mL and 2330 ng/mL"},
      {"measurement": "Concentration, Plasma 4 h", "setting": "[5]; [9]", "result": "1200 ng/mL and 856 ng/mL and 1310 ng/mL"},
      {"measurement": "Concentration, Plasma 6 h", "setting": "[5]; [9]", "result": "692 ng/mL and 928 ng/mL and 718 ng/mL"},
      {"measurement": "Concentration, Plasma 24 h", "setting": "[5]; [9]", "result": "146 ng/mL and 187 ng/mL and 176 ng/mL"},
      {"measurement": "Concentration, Plasma 48 h", "setting": "[5]; [9]", "result": "60.5 ng/mL and 57.4 ng/mL and 85.2 ng/mL"},
      {"measurement": "Concentration, Tissue (48 h) Kidney", "setting": "[5]; [9]", "result": "22800 ng/mL and 25500 ng/mL and 17100 ng/mL"},
      {"measurement": "Concentration, Tissue (48 h) Liver", "setting": "[5]; [9]", "result": "7760 ng/mL and 7850 ng/mL and 5130 ng/mL"},
      {"measurement": "Concentration, Tissue (48 h) Lung", "setting": "[5]; [9]", "result": "8290 ng/mL and 9410 ng/mL and 7570 ng/mL"},
      {"measurement": "Concentration, Tissue (48 h) ELF", "setting": "[5]; epithelial lining fluid, SC single 10 mg/kg in 30% Captisol, individual animals and mean, 10 mg/kg", "result": "320 ng/mL and 356 ng/mL and 1370 ng/mL"},
      {"measurement": "AUClast", "setting": "[5]; [10]", "result": 19434, "unit": "ng·h/mL"},
      {"measurement": "Cmax", "setting": "[5]; [10]", "result": 2063, "unit": "ng/mL"},
      {"measurement": "HL_Lambda_z (Half life time)", "setting": "[5]; [10]", "result": 11.1, "unit": "h"},
      {"measurement": "MRTlast (Mean retention time till last measured value)", "setting": "[5]; [10]", "result": 9.7, "unit": "h"},
      {"measurement": "Tmax", "setting": "[5]; [10]", "result": 1.0, "unit": "h"},
      {"measurement": "Vz_F_obs", "setting": "[5]; [10]", "result": 7.8, "unit": "L/kg"}
    ]}
  ]
}
